Assay results from US20150018311A1, “THERAPEUTIC BORON-CONTAINING COMPOUNDS” (priority 2012, published 2015).

How the values were obtained:
Test in all cases: Growth in liquid media in presence of test compound
Format in all cases: cell-based
[1] = system: Mycobacterium tuberculosis (H37Rv)
[2] = system: Staphylococcus aureus (ATCC 25923)
Source text: (§1) Test organisms used were the bacterial strains Escherichia coli (ATCC 25922), Pseudomonas aeruginosa (ATCC 27853), Staphylococcus aureus (ATCC 25923), Streptococcus pyogenes (ATCC 19615), and Mycobacterium tuberculosis (H37Rv), and the yeast strain Candida albicans (ATCC 90028).
(§2) The liquid media used for growth were Luria-Bertani (Becton Dickinson, Sparks, Md.) and Mueller-Hinton (bio-Merieux, Paris, France) broths, but with Saburo medium for Candida and Middlebrook 7H9 medium (Difco) for mycobacteria.
(§3) The strains were grown at 37° C. and after suitable cell concentrations had been reached, 100 μL of each cell suspension was added to a tube with growth media and test compound. Cultivation of the bacteria was then carried out in the presence of each test compound at 37° C. and the tubes examined for visible growth. The compounds were tested at concentrations of either 500 mg/l, 50 mg/l or 5 mg/l. This assay was repeated twice.
(§4) Some compounds were only tested against some test organisms. It will be appreciated that the charge of these molecules will depend on the environment, some of the Examples are shown with a suitable counter ion, some without.

[3] = system: Streptococcus pyogenes (ATCC 19615)
Source text: as §1, §2, §3, §4

[4] = system: Escherichia coli (ATCC 25922)
Source text: as §1, §2, §3, §4

[5] = system: Candida albicans (ATCC 90028)
Source text: as §1, §2, §3, §4

[6] = system: Pseudomonas aeruginosa (ATCC 27853)
Source text: as §1, §2, §3, §4

Row | SMILES | Growth in the presence of test compound, M. tuberculosis ([1]; 5 mg/L) | Growth in the presence of test compound, M. tuberculosis ([1]; 50 mg/L) | Growth in the presence of test compound, M. tuberculosis ([1]; 500 mg/L) | Growth in the presence of test compound, S. aureus ([2]; 5 mg/L) | Growth in the presence of test compound, S. aureus ([2]; 50 mg/L) | Growth in the presence of test compound, S. aureus ([2]; 500 mg/L) | Growth in the presence of test compound, S. pyogenes ([3]; 5 mg/L) | Growth in the presence of test compound, S. pyogenes ([3]; 50 mg/L) | Growth in the presence of test compound, S. pyogenes ([3]; 500 mg/L) | Growth in the presence of test compound, E. coli ([4]; 5 mg/L) | Growth in the presence of test compound, E. coli ([4]; 50 mg/L) | Growth in the presence of test compound, E. coli ([4]; 500 mg/L) | Growth in the presence of test compound, C. albicans ([5]; 5 mg/L) | Growth in the presence of test compound, C. albicans ([5]; 50 mg/L) | Growth in the presence of test compound, C. albicans ([5]; 500 mg/L) | Growth in the presence of test compound, P. aeruginosa ([6]; 5 mg/L) | Growth in the presence of test compound, P. aeruginosa ([6]; 50 mg/L) | Growth in the presence of test compound, P. aeruginosa ([6]; 500 mg/L)
1 | CC1(C)C2CC3OB(CC(Cc4ccccc4)NC(=O)C(N)Cc4ccccc4)OC3(C)C1C2 (stereo not drawn) [Compound 2] | + | + | ± |  |  |  |  |  |  |  |  |  |  |  |  |  |  | 
2 | CC(N)C(=O)NC(CB1OC2CC3CC(C3(C)C)C2(C)O1)Cc1ccccc1 (stereo not drawn) [Compound 3] | + | − | − | + | + | − | + | + | − |  |  |  |  |  |  |  |  | 
3 | CC1(C)C2CC3OB(CC(Cc4ccccc4)NC(=O)C(N)CCCNC(=N)N)OC3(C)C1C2 (stereo not drawn) [Compound 4] | + | − | − | + | + | − | + | + | − | + | + | − | + | + | − |  |  | 
4 | CC1(C)C2CC3OB(CC(Cc4ccccc4)NC(=O)C(N)Cc4c[nH]c5ccccc45)OC3(C)C1C2 (stereo not drawn) [Compound 5] | + | ± | − | + | + | − |  |  |  |  |  |  |  |  |  |  |  | 
5 | CC(CB1OC2CC3CC(C3(C)C)C2(C)O1)NC(=O)C(N)CCCCN (stereo not drawn) [Compound 6] | + | + | ± |  |  |  |  |  |  |  |  |  |  |  |  |  |  | 
6 | CC(N)C(=O)NC(CB1OC2CC3CC(C3(C)C)C2(C)O1)c1ccccc1 (stereo not drawn) [Compound 8] | + | + | − | + | + | ± |  |  |  |  |  |  |  |  |  |  |  | 
7 | CC1(C)C2CC3OB([C@@H](CNC(=O)[C@@H](N)CCCCN)Cc4ccccc4)O[C@]3(C)C1C2 (stereo partly drawn) [Compound 9] | − | − | − | + | + | − | + | + | − |  |  |  | + | + | − | + | + | ±
8 | CC1(C)C2CC3OB([C@@H](CNC(=O)[C@@H](N)Cc4ccccc4)Cc4ccccc4)O[C@]3(C)C1C2 (stereo partly drawn) [Compound 10] | − | − | − | + | + | ± | + | + | ± |  |  |  | + | + | ± |  |  | 
9 | C[C@H](CNC(=O)[C@@H](N)CCCCN)B1OC2CC3CC(C3(C)C)[C@@]2(C)O1 (stereo partly drawn) [Compound 16] | + | ± | − |  |  |  |  |  |  |  |  |  | + | + | ± |  |  | 
10 | C[C@H](CNC(=O)[C@@H](N)Cc1ccccc1)B1OC2CC3CC(C3(C)C)[C@@]2(C)O1 (stereo partly drawn) [Compound 17] | + | + | − | + | + | − | + | + | − |  |  |  | + | + | ± |  |  | 
11 | CC1(C)C2CC3OB([C@@H](CNC(=O)[C@@H](N)Cc4ccccc4)c4ccccc4)O[C@]3(C)C1C2 (stereo partly drawn) [Compound 23] | + | + | − | + | + | − | + | + | − |  |  |  | + | + | − |  |  | 
12 | CC1(C)C2CC3OB(C(CNC(=O)C(N)CCCCN)c4ccccc4)OC3(C)C1C2 (stereo not drawn) [Compound 24] | + | + | − |  |  |  |  |  |  |  |  |  |  |  |  |  |  | 
13 | C[C@@H](NC(=O)[C@@H](N)Cc1ccccc1)[C@@H](Cc1ccccc1)B1OC2CC3CC(C3(C)C)[C@@]2(C)O1 (stereo partly drawn) [Compound 27] | + | − | ± |  |  |  | + | + | ± |  |  |  | + | + | ± |  |  | 
14 | C[C@@H](B1OC2CC3CC(C3(C)C)[C@@]2(C)O1)[C@@H](Cc1ccccc1)NC(=O)[C@@H](N)Cc1ccccc1 (stereo partly drawn) [Compound 28] | + | − | − | + | + | ± | + | + | ± |  |  |  | + | + | ± |  |  | 
15 | CC1(C)C2CC3OB(CCNC(=O)[C@@H](N)CCCCN)O[C@]3(C)C1C2 (stereo partly drawn) [Compound 32] | + | + | − |  |  |  |  |  |  | + | + | ± | + | + | − |  |  | 
16 | N[C@@H](Cc1ccccc1)C(=O)N[C@@H](CB(O)O)Cc1ccccc1 [Compound 33] | ± | − | − |  |  |  |  |  |  |  |  |  |  |  |  |  |  | 
17 | C[C@H](N)C(=O)N[C@@H](CB(O)O)Cc1ccccc1 [Compound 35] | + | + | − |  |  |  |  |  |  |  |  |  |  |  |  |  |  | 
18 | NCCCC[C@H](N)C(=O)NC[C@@H](CCc1ccccc1)B(O)O [Compound 37] | + | + | − |  |  |  |  |  |  |  |  |  | + | + | − |  |  | 
19 | N[C@@H](Cc1ccccc1)C(=O)NC[C@@H](CCc1ccccc1)B(O)O [Compound 39] | + | + | − |  |  |  |  |  |  | + | + | − |  |  |  |  |  | 
20 | C[C@H](N)C(=O)NC[C@H](Cc1ccccc1)B(O)O [Compound 40] | ± | ± | − |  |  |  |  |  |  |  |  |  |  |  |  |  |  | 
